Test results from PubChem BioAssay (NCI).
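Method: 48-hour compound exposure of cells in 96-well plates, five concentrations, linear interpolation of endpoints. The concentration for 50% growth inhibition is given as GI50. The concentration for full growth arrest is given as TGI.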

Tests used:
Assay in all cases: growth of human tumour cells (NCI), 48 h
SF-268 CNS = tested on: SF-268 CNS
K-562 leukemia = tested on: K-562 leukemia
NCI/ADR-RES ovarian = tested on: NCI/ADR-RES ovarian
NCI-H522 lung = tested on: NCI-H522 lung
NCI-H226 lung = tested on: NCI-H226 lung
UACC-257 melanoma = tested on: UACC-257 melanoma
ACHN renal = tested on: ACHN renal
SNB-19 CNS = tested on: SNB-19 CNS
DU-145 prostate = tested on: DU-145 prostate
HCT-15 colon = tested on: HCT-15 colon
SF-295 CNS = tested on: SF-295 CNS
HL-60(TB) leukemia = tested on: HL-60(TB) leukemia
BT-549 breast = tested on: BT-549 breast
OVCAR-5 ovarian = tested on: OVCAR-5 ovarian
HCT-116 colon = tested on: HCT-116 colon
786-0 renal = tested on: 786-0 renal
OVCAR-4 ovarian = tested on: OVCAR-4 ovarian
A498 renal = tested on: A498 renal
NCI-H460 lung = tested on: NCI-H460 lung
HT29 colon = tested on: HT29 colon
SK-OV-3 ovarian = tested on: SK-OV-3 ovarian
TK-10 renal = tested on: TK-10 renal
COLO 205 colon = tested on: COLO 205 colon
SNB-75 CNS = tested on: SNB-75 CNS
U251 CNS = tested on: U251 CNS
MDA-MB-435 = tested on: MDA-MB-435
MDA-MB-231 breast = tested on: MDA-MB-231 breast
HCC-2998 colon = tested on: HCC-2998 colon
SN12C renal = tested on: SN12C renal
KM12 colon = tested on: KM12 colon
OVCAR-8 ovarian = tested on: OVCAR-8 ovarian
SK-MEL-28 melanoma = tested on: SK-MEL-28 melanoma
EKVX NSCLC = tested on: EKVX NSCLC
RXF 393 renal = tested on: RXF 393 renal
MALME-3M melanoma = tested on: MALME-3M melanoma
MOLT-4 leukemia = tested on: MOLT-4 leukemia
SK-MEL-5 melanoma = tested on: SK-MEL-5 melanoma
HS 578T breast = tested on: HS 578T breast
SW-620 colon = tested on: SW-620 colon
SK-MEL-2 melanoma = tested on: SK-MEL-2 melanoma
OVCAR-3 ovarian = tested on: OVCAR-3 ovarian
A549 NSCLC = tested on: A549 NSCLC
IGROV1 ovarian = tested on: IGROV1 ovarian
MCF7 breast = tested on: MCF7 breast
UACC-62 melanoma = tested on: UACC-62 melanoma
SF-539 CNS = tested on: SF-539 CNS
LOX IMVI melanoma = tested on: LOX IMVI melanoma
HOP-62 NSCLC = tested on: HOP-62 NSCLC
M14 melanoma = tested on: M14 melanoma
UO-31 renal = tested on: UO-31 renal

**Q.** `CN1CCN(CCCCCOc2cc(O)c3c(=O)cc(-c4ccccc4)oc3c2)CC1` was tested. Which GI50 (SF-268 CNS) did it give?
**A.** 11.7 µM

**Q.** And the TGI (SF-268 CNS)?
**A.** > 100 µM

**Q.** What about the GI50 (K-562 leukemia) of the same compound?
**A.** 1.8 µM

**Q.** And the TGI (K-562 leukemia)?
**A.** 3.68 µM

**Q.** And the GI50 (NCI/ADR-RES ovarian)?
**A.** 14.9 µM

**Q.** What about the TGI (NCI/ADR-RES ovarian) of the same compound?
**A.** 54.4 µM

**Q.** What about the GI50 (NCI-H522 lung) of the same compound?
**A.** 2.59 µM

**Q.** And the TGI (NCI-H522 lung)?
**A.** 6.71 µM

**Q.** What about the GI50 (NCI-H226 lung) of the same compound?
**A.** 22 µM

**Q.** And the TGI (NCI-H226 lung)?
**A.** 46.4 µM

**Q.** And the GI50 (UACC-257 melanoma)?
**A.** 2.03 µM

**Q.** And the TGI (UACC-257 melanoma)?
**A.** 3.78 µM

**Q.** What about the GI50 (ACHN renal) of the same compound?
**A.** 1.91 µM

**Q.** What about the TGI (ACHN renal) of the same compound?
**A.** 3.87 µM

**Q.** What about the GI50 (SNB-19 CNS) of the same compound?
**A.** 4.11 µM

**Q.** What about the TGI (SNB-19 CNS) of the same compound?
**A.** 22.3 µM

**Q.** What about the GI50 (DU-145 prostate) of the same compound?
**A.** 10.5 µM

**Q.** And the TGI (DU-145 prostate)?
**A.** > 100 µM

**Q.** What about the GI50 (HCT-15 colon) of the same compound?
**A.** 1.79 µM

**Q.** And the TGI (HCT-15 colon)?
**A.** 4.02 µM

**Q.** What about the GI50 (SF-295 CNS) of the same compound?
**A.** 2.05 µM

**Q.** What about the TGI (SF-295 CNS) of the same compound?
**A.** 4.16 µM

**Q.** And the GI50 (HL-60(TB) leukemia)?
**A.** 3.04 µM

**Q.** What about the TGI (HL-60(TB) leukemia) of the same compound?
**A.** 8.63 µM

**Q.** And the GI50 (BT-549 breast)?
**A.** 13.4 µM

**Q.** And the TGI (BT-549 breast)?
**A.** 29.7 µM

**Q.** What about the GI50 (OVCAR-5 ovarian) of the same compound?
**A.** 4 µM

**Q.** What about the TGI (OVCAR-5 ovarian) of the same compound?
**A.** 22.2 µM

**Q.** And the GI50 (HCT-116 colon)?
**A.** 1.74 µM

**Q.** What about the TGI (HCT-116 colon) of the same compound?
**A.** 4.08 µM

**Q.** And the GI50 (786-0 renal)?
**A.** 12.4 µM

**Q.** And the TGI (786-0 renal)?
**A.** 26.6 µM

**Q.** What about the GI50 (OVCAR-4 ovarian) of the same compound?
**A.** 19.1 µM

**Q.** And the TGI (OVCAR-4 ovarian)?
**A.** 77.7 µM

**Q.** And the GI50 (A498 renal)?
**A.** 24.3 µM

**Q.** What about the TGI (A498 renal) of the same compound?
**A.** 42.8 µM

**Q.** And the GI50 (NCI-H460 lung)?
**A.** 3.27 µM

**Q.** What about the TGI (NCI-H460 lung) of the same compound?
**A.** 11.3 µM

**Q.** What about the GI50 (HT29 colon) of the same compound?
**A.** 2.86 µM

**Q.** And the TGI (HT29 colon)?
**A.** 8.12 µM

**Q.** What about the GI50 (SK-OV-3 ovarian) of the same compound?
**A.** 3.62 µM

**Q.** And the TGI (SK-OV-3 ovarian)?
**A.** 16.9 µM

**Q.** And the GI50 (TK-10 renal)?
**A.** 12 µM

**Q.** What about the TGI (TK-10 renal) of the same compound?
**A.** 39.4 µM

**Q.** What about the GI50 (COLO 205 colon) of the same compound?
**A.** 1.63 µM

**Q.** And the TGI (COLO 205 colon)?
**A.** 3.06 µM

**Q.** And the GI50 (SNB-75 CNS)?
**A.** 30.5 µM

**Q.** And the TGI (SNB-75 CNS)?
**A.** 54.9 µM

**Q.** What about the GI50 (U251 CNS) of the same compound?
**A.** 1.98 µM

**Q.** What about the TGI (U251 CNS) of the same compound?
**A.** 4.86 µM

**Q.** And the GI50 (MDA-MB-435)?
**A.** 2.32 µM

**Q.** And the TGI (MDA-MB-435)?
**A.** 5.33 µM

**Q.** What about the GI50 (MDA-MB-231 breast) of the same compound?
**A.** 1.12 µM

**Q.** And the TGI (MDA-MB-231 breast)?
**A.** 4.53 µM

**Q.** What about the GI50 (HCC-2998 colon) of the same compound?
**A.** 0.239 µM

**Q.** And the TGI (HCC-2998 colon)?
**A.** 4.9 µM

**Q.** And the GI50 (SN12C renal)?
**A.** 11.8 µM

**Q.** What about the TGI (SN12C renal) of the same compound?
**A.** 27.6 µM

**Q.** And the GI50 (KM12 colon)?
**A.** 2.84 µM

**Q.** What about the TGI (KM12 colon) of the same compound?
**A.** 9.66 µM

**Q.** And the GI50 (OVCAR-8 ovarian)?
**A.** 15.7 µM

**Q.** And the TGI (OVCAR-8 ovarian)?
**A.** 91.7 µM

**Q.** What about the GI50 (SK-MEL-28 melanoma) of the same compound?
**A.** 2.22 µM

**Q.** What about the TGI (SK-MEL-28 melanoma) of the same compound?
**A.** 4.25 µM

**Q.** And the GI50 (EKVX NSCLC)?
**A.** 10.2 µM

**Q.** And the TGI (EKVX NSCLC)?
**A.** > 100 µM

**Q.** And the GI50 (RXF 393 renal)?
**A.** 1.96 µM

**Q.** And the TGI (RXF 393 renal)?
**A.** 5.97 µM

**Q.** And the GI50 (MALME-3M melanoma)?
**A.** 0.898 µM

**Q.** And the TGI (MALME-3M melanoma)?
**A.** 4.31 µM

**Q.** What about the GI50 (MOLT-4 leukemia) of the same compound?
**A.** 3.27 µM

**Q.** What about the TGI (MOLT-4 leukemia) of the same compound?
**A.** 12.4 µM

**Q.** And the GI50 (SK-MEL-5 melanoma)?
**A.** 3.13 µM

**Q.** What about the TGI (SK-MEL-5 melanoma) of the same compound?
**A.** 10.3 µM

**Q.** And the GI50 (HS 578T breast)?
**A.** 18.1 µM

**Q.** What about the TGI (HS 578T breast) of the same compound?
**A.** 51.9 µM

**Q.** What about the GI50 (SW-620 colon) of the same compound?
**A.** 2.61 µM

**Q.** What about the TGI (SW-620 colon) of the same compound?
**A.** 7.53 µM

**Q.** And the GI50 (SK-MEL-2 melanoma)?
**A.** 3.04 µM

**Q.** And the TGI (SK-MEL-2 melanoma)?
**A.** 8.76 µM

**Q.** And the GI50 (OVCAR-3 ovarian)?
**A.** 3.45 µM

**Q.** What about the TGI (OVCAR-3 ovarian) of the same compound?
**A.** 8.1 µM

**Q.** And the GI50 (A549 NSCLC)?
**A.** 8.18 µM

**Q.** What about the TGI (A549 NSCLC) of the same compound?
**A.** 26.3 µM

**Q.** And the GI50 (IGROV1 ovarian)?
**A.** 2.41 µM

**Q.** And the TGI (IGROV1 ovarian)?
**A.** 5.64 µM

**Q.** And the GI50 (MCF7 breast)?
**A.** 3.45 µM

**Q.** And the TGI (MCF7 breast)?
**A.** 11.3 µM

**Q.** What about the GI50 (UACC-62 melanoma) of the same compound?
**A.** 1.86 µM

**Q.** What about the TGI (UACC-62 melanoma) of the same compound?
**A.** 3.26 µM

**Q.** And the GI50 (SF-539 CNS)?
**A.** 2.81 µM

**Q.** What about the TGI (SF-539 CNS) of the same compound?
**A.** 7.87 µM

**Q.** And the GI50 (LOX IMVI melanoma)?
**A.** 1.6 µM

**Q.** And the TGI (LOX IMVI melanoma)?
**A.** 2.95 µM

**Q.** What about the GI50 (HOP-62 NSCLC) of the same compound?
**A.** 2.96 µM

**Q.** And the TGI (HOP-62 NSCLC)?
**A.** 8.54 µM

**Q.** And the GI50 (M14 melanoma)?
**A.** 1.71 µM

**Q.** What about the TGI (M14 melanoma) of the same compound?
**A.** 3.09 µM

**Q.** And the GI50 (UO-31 renal)?
**A.** 1.71 µM

**Q.** What about the TGI (UO-31 renal) of the same compound?
**A.** 3.55 µM
